US20080089957A1, “Monocotyledon plant indications extract compositions, method of preparation and pharmaceutical compositions containing them” (priority 2006, published 2008)
Counter-ions that a name gives are not always drawn. Like-named read-outs stand apart in the source and are kept apart here.

Key:
xanthine oxidase = xanthine oxidase (UniProt P80457); assay: Xanthine oxidase inhibitory activity assay, spectrophotometric at 295 nm; assay type: biochemical
Procedure: A reaction mixture containing 200 mM sodium pyrophosphate buffer (pH 7.5), 100 mM xanthine and 0.05 unit xanthine oxidase was prepared. […] All determinations were performed in triplicate and samples were tested further to ascertain the corresponding IC50 values.

phosphodiesterases = assay: Phosphodiesterase inhibitory activity assay, bis(p-nitrophenyl phosphate), 405 nm; assay type: biochemical
Procedure: The inhibitory effect on phosphodiesterases was measured spectrophotometrically at 405 nm. A reaction mixture containing 300 μl of 100 mM Tris buffer (pH 8.9), 600 μl of 1 mM Bis(p-nitrophenyl phosphate), 100 μl of sample and 100 μl of enzyme was used for analysis. The absorption increments at 405 nm indicated formation of […] at room temperature, and the initial velocity was calculated. The inhibitory activity of phosphodiesterases was assessed as % inhibition=(1−β/α)×100, where α is the change in absorbance per minute without the sample (A blank with enzyme−A blank without enzyme), and β is the change in absorbance per minute with the sample (A test with enzyme−A test without enzyme).

[1] = Table 3, triplicate, read-out: IC50 ± SEM
[2] = unit inferred, read-out: IC50 on xanthine oxidase

| IC50 (xanthine oxidase; [1]) [µM] | IC50 (xanthine oxidase; [2]) [µM] | SMILES | also measured |
| --- | --- | --- | --- |
| > 200 | – | Nc1ncc2[nH]cnc2n1 [2-Aminopurine] | – |
| > 200 | – | Cc1ccc2[nH]cnc2c1 [5-Methylbenzimidazole] | – |
| – | 92.42 ± 0.62 | Nc1nc2nc[nH]c2c(=S)[nH]1 [6-Thioguanine] | – |
| > 200 | – | Nc1nc(Cl)c2nc[nH]c2n1 [2-Amino-6-chloropurine] | – |
| > 200 | – | COc1nc(N)nc2nc[nH]c12 [6-O-Methylguanine] | – |
| > 200 | – | Nc1nc(N)c2[nH]cnc2n1 [2,6-Diaminopurine] | – |
| – | 30.26 ± 0.23 | Nc1ncnc2[nH]ncc12 [4-Aminopyrazolo[3,4-d]pyrimidine] | – |
| > 200 | – | Cc1cc2nc[nH]c2cc1C [5,6-Dimethylbenzimidazole] | – |
| – | 86.84 ± 0.51 | O=[N+]([O-])c1ccc2[nH]cnc2c1 [5-Nitrobenzimidazole nitrate salt] | – |
| – | – | O=C(O)/C=C(\CC(=O)O)C(=O)O [trans-aconitic acid] | phosphodiesterase inhibitory activity (phosphodiesterases): phosphodiesterase inhibitor |
